What all share (assay type): cell-based
The target of data set [1] is T1, Nav 1.7 (Homo sapiens (Human), UniProt Q15858). Description: Nav 1.7 IWQ in vitro assay (IonWorks Quattro population patch-clamp). To be noted: 293 cells stably transfected with Nav 1.7. Summed up:
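HEK293 cells stably expressing Nav 1.7, recorded by automated population patch-clamp with a train of depolarizations producing increasing inactivation. Single compound concentration added during 3–8 min unclamped period, then same protocol repeated. Leak-corrected current at 26th pulse to −20 mV gave percent block (duplicate); IC50 fitted from concentration–block curves.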

Data set [2] addresses T1, Nav 1.7. Put plainly: Nav 1.7 in vitro PX assay (PatchXpress whole cell voltage clamp). To be noted: 293 cells, human Nav1.7, partially inactivated state; read-out: Nav1.7 PX IC50 IP. In a few lines:
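HEK293 cells stably expressing human Nav1.7, whole-cell voltage clamp on PatchXpress, held at potential giving 20–50% inactivation; current elicited by 20 msec pulse to −10 mV.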

The target in a further data set is Nav 1.5 (Homo sapiens (Human), UniProt Q14524). Put plainly: Nav 1.5 in vitro PX assay (PatchXpress whole cell voltage clamp). To be noted: 293 cells stably transfected with Nav 1.5. Summed up:
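HEK293 cells stably expressing Nav 1.5, whole-cell voltage clamp held at −50 mV; 20 msec test pulses to 0 mV at 0.1 Hz, each preceded by a step to −120 mV.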

The mark [3] stands for this setting: second part of table, read-out: Nav1.7 IWQ IC50 IP.
The mark [4] stands for this setting: second part of table, read-out: Nav1.5 PX IC50.
[5] abbreviates: first part of table, read-out: Nav 1.7 IWQ IC50.
Where [6] appears, read: first part of table, read-out: Nav 1.5 PX IC50.

As a reminder, the IC50 is the concentration at which inhibition is half-maximal.

Structures are written as SMILES. Where two headings read alike, the source gives them in different places. Some results are limits rather than exact numbers.

Sequence of Nav 1.5 (Q14524 whole entry): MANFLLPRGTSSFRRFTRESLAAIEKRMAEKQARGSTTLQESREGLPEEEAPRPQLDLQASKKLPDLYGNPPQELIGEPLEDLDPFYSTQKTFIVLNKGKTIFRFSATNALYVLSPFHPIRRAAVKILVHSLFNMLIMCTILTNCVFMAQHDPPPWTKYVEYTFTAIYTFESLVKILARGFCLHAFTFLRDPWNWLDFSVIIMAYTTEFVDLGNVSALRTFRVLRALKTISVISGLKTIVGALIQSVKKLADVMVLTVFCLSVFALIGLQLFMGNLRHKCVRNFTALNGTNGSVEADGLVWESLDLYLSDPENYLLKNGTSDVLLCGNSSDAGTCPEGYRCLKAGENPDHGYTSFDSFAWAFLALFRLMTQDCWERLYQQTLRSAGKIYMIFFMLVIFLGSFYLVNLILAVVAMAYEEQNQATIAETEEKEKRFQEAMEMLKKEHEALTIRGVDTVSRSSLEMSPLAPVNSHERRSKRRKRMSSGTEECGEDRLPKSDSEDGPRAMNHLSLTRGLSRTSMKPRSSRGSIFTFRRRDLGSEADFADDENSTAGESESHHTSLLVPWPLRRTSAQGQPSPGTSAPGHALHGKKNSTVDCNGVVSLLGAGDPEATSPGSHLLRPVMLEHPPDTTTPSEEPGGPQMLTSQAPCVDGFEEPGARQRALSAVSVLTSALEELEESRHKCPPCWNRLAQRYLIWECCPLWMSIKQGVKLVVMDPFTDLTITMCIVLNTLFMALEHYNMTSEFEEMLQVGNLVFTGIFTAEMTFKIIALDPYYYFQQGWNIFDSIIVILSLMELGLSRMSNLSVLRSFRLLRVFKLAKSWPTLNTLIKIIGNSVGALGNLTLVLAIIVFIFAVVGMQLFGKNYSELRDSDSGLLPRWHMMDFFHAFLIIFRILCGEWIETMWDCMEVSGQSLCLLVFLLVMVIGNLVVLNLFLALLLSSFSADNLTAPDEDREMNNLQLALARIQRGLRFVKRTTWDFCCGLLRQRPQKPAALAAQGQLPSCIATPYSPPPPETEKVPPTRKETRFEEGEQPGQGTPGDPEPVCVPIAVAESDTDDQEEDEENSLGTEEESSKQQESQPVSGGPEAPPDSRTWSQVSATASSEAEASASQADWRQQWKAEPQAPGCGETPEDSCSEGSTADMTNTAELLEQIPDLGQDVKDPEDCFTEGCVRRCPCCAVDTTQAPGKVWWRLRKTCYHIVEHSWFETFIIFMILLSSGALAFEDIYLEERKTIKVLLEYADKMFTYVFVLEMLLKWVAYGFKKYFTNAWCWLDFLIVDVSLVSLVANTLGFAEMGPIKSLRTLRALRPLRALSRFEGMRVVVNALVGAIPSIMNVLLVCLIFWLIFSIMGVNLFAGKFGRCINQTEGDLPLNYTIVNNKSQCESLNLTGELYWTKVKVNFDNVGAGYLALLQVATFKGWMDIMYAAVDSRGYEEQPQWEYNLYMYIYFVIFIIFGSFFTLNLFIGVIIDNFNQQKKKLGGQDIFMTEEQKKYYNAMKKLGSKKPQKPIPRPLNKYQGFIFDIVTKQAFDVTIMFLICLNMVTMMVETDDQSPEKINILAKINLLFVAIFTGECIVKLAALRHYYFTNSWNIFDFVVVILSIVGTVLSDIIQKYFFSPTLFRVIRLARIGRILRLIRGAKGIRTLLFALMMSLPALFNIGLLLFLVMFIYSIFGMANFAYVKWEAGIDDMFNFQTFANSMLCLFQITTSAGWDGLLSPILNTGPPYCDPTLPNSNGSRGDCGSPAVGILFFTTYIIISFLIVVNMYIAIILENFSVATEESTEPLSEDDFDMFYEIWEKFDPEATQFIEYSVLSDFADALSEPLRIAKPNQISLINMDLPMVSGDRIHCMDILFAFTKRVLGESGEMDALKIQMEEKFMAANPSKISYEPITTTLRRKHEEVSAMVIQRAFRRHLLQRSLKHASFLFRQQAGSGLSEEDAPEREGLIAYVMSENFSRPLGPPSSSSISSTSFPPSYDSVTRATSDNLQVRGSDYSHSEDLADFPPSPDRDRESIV
T1 sequence (Q15858 whole entry): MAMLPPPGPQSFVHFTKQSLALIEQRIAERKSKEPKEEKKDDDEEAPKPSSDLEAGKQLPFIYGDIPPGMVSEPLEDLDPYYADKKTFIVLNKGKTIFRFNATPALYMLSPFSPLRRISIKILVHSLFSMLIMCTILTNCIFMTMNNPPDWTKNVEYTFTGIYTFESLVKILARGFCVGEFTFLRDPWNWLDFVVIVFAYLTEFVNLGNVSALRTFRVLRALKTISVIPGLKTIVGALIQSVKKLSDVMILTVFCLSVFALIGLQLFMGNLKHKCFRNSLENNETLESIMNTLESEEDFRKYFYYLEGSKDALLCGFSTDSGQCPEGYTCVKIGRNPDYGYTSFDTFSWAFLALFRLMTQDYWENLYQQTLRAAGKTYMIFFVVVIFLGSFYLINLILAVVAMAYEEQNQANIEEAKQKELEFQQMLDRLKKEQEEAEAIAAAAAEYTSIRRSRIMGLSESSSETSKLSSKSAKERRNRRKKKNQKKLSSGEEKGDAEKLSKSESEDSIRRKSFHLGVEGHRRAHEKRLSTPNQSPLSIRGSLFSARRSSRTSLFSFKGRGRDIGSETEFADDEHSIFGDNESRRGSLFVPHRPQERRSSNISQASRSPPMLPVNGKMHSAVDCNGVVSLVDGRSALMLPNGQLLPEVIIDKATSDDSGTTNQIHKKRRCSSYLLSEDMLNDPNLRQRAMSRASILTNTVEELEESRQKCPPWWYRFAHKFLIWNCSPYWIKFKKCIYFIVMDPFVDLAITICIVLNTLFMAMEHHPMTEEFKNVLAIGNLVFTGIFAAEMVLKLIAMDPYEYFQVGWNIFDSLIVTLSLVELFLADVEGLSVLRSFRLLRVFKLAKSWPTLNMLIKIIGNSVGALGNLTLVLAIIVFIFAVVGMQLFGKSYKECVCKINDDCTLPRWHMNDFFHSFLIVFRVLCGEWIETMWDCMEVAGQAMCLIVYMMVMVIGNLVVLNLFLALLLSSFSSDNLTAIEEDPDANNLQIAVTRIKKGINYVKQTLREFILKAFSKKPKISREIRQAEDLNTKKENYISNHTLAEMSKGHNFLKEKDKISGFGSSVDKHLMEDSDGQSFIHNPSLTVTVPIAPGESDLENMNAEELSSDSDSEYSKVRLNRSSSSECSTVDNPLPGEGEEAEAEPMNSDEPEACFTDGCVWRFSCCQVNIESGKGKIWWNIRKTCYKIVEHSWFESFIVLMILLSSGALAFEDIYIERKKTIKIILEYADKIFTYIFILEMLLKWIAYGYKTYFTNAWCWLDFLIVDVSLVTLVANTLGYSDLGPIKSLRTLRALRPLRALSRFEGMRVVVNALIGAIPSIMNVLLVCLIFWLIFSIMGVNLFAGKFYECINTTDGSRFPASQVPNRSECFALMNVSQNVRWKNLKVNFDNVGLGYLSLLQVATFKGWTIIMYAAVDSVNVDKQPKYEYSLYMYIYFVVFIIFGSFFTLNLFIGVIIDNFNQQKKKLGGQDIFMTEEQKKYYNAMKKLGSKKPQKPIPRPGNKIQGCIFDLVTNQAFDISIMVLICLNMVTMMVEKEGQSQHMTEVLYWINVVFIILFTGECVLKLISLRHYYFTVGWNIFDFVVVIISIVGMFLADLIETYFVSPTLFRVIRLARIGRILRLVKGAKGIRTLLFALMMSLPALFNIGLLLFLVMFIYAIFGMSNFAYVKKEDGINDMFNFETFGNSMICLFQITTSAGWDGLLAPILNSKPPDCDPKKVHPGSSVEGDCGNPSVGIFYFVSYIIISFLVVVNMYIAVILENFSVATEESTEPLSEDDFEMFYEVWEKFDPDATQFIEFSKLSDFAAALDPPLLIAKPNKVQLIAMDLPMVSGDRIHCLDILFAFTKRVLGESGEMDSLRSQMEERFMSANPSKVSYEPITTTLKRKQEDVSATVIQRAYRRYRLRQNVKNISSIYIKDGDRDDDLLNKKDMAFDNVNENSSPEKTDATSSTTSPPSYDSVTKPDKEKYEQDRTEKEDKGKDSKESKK

On to `COc1cc(-c2cccc(F)c2)ccc1-c1nccc2cc(S(=O)(=O)Nc3ccncn3)ccc12` [Example 199, 1-(3′-FLUORO-3-METHOXY-[1,1′-BIPHENYL]-4-YL)-N-(PYRIMIDIN-4-YL)ISOQUINOLINE-6-SULFONAMIDE 2,2,2-TRIFLUOROACETATE], for which the figures for the IC50 at Nav 1.7 [1] (setting [3]), at Nav 1.7 [2] and on Nav 1.5 (setting [4]) were 20 nM, 156 nM and over 30000 nM, respectively.
The like results for `COc1cc(C(F)(F)F)ccc1-c1ccnc2cc(S(=O)(=O)Nc3nccs3)ccc12` [Example 276, 4-(2-METHOXY-4-(TRIFLUOROMETHYL)PHENYL)-N-(THIAZOL-2-YL)QUINOLINE-7-SULFONAMIDE] were, in that order, 50 nM, 350 nM and 12300 nM.
Regarding `COc1cc(C(F)(F)F)ccc1-c1ncnc2cc(S(=O)(=O)Nc3nccs3)ccc12` [Example 261, 4-(2-methoxy-4-(trifluoromethyl)phenyl)-N-(thiazol-2-yl)quinazoline-7-sulfonamide], the values for the IC50 on Nav 1.7 [1] (setting [3]), at Nav 1.7 [2] and on Nav 1.5 (setting [4]) were 10 nM, 200 nM and over 30000 nM, respectively.
On to `COc1cc(C(F)(F)F)ccc1-c1nccc2cc(S(=O)(=O)Nc3ncns3)ccc12` [Example 195, 1-(2-METHOXY-4-(TRIFLUOROMETHYL)PHENYL)-N-(1,2,4-THIADIAZOL-5-YL)ISOQUINOLINE-6-SULFONAMIDE], for which the IC50 at Nav 1.7 [1] (setting [3]) is 10 nM; on Nav 1.7 [2] it was 134 nM; at Nav 1.5 (setting [4]), over 30000 nM.
On to `NC(=O)c1cc(C(F)(F)F)ccc1-c1cccc2cc(S(=O)(=O)Nc3ncns3)ccc12` [Example 32], for which the IC50 was 170 nM on Nav 1.7 [1] (setting [5]) and over 30000 nM on Nav 1.5 (setting [6]).
As for `Cn1nccc1-c1cc(C(F)(F)F)ccc1-c1nccc2cc(S(=O)(=O)Nc3ncns3)ccc12` [Example 54, 1-(2-(1-METHYL-1H-PYRAZOL-5-YL)-4-(TRIFLUOROMETHYL)PHENYL)-N-(1,2,4-THIADIAZOL-5-YL)ISOQUINOLINE-6-SULFONAMIDE], the IC50 at Nav 1.7 [1] (setting [5]) was 40 nM; on Nav 1.5 (setting [6]), over 30000 nM.
